Values joined by “and” are separate entries in the source; they are usually repeats but may differ in a detail not shown here. Equal values may be shown once. Where no end group is shown, it is not given here.
What was measured:
[1] = target: CXCR7 tagged with ProLink (PathHunter CHO-K1 cell line) (UniProt P25106)
CXCR7 [2] = target: T1, CXCR7 (Homo sapiens, UniProt P25106); test: PathHunter β-Arrestin recruitment to CXCR7, dose response; assay type: cell-based; conditions: 10-point curve, Hill / four-parameter logistic
T1 construct: host or cells: CHO-K1
T1 sequence (P25106 whole entry): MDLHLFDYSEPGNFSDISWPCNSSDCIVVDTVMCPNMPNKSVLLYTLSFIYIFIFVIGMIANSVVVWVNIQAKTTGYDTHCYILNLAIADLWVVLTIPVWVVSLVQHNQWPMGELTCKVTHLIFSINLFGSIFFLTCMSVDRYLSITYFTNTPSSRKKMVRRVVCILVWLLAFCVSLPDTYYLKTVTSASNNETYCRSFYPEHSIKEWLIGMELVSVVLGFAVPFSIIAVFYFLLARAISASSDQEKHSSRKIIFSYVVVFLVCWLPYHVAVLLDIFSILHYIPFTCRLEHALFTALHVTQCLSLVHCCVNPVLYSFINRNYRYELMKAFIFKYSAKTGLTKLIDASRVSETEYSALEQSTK
T1 sequence (P32121 whole entry partner): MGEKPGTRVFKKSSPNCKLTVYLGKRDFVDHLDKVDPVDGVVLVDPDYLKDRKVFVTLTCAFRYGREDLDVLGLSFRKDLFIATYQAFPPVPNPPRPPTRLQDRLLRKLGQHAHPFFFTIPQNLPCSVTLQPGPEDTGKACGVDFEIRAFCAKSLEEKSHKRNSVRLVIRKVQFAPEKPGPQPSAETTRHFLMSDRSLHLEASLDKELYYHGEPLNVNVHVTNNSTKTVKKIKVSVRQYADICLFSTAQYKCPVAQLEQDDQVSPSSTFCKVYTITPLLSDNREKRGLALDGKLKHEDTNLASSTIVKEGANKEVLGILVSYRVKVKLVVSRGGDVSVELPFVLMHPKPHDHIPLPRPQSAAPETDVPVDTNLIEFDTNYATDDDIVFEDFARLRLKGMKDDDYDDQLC
Procedure: The GPCR profiling was performed using PathHunter GPCRmax Arrestin recruitment assay with 168 known GPCRs provided by DiscoverX (Eurofins). This assay utilized Chinese Hamster Ovary CHO-K1 cells expressing GPCR tagged with ProLink (PK) and β-Arrestin2 tagged with a deletion mutant of β-galactosidase as an enzyme acceptor. Upon the binding of the ligand to the GPCR, the recruitment of tagged β-Arrestin2 to the GPCR causes the complementation of a functional β-galactosidase, hydrolyzing a chemiluminescence substrate. The assay was performed with known ligands in agonist and antagonist modes, with data presented as: %Activityagonist=100%×MeanRLUSHLP2−MeanRLU(vehiclecontrol)/MeanMAXRLUcontrolligand−MeanRLU(vehiclecontrol) and %Activityantagonist=100%×1−MeanRLUSHLP2−MeanRLU(vehiclecontrol)/MeanMAXRLUcontrolligand−MeanRLU(vehiclecontrol)
The dose response (EC50) was built using a 10-point curve and fit to a Hill Equation.

[3] = Dot blot for SHLP2 in CSF after IP injection; assay type: in vivo, mouse
Procedure: The immuno-dot blot assay was performed by using the human and mice serum or mouse CSF. 0.2 μm nitrocellulose membranes were activated with ultrapure water (Invitrogen, 10977015), and 2 μL of samples were spotted on a membrane and dried for 30 mins at RT. The membrane was blocked in 5% BSA prepared in 1X Tris Buffered Saline-0.1% Tween 20 (TBST) for 1 h before being overnight incubated with anti-SHLP2 at 4 °C. Membranes were washed 3 times with 1X TBST, then incubated with anti-rabbit IgG (Invitrogen, 31460, 1:3000). The membranes were washed and visualized using the ImageQuant™ LAS 4000 (GE Healthcare Life Science). Blot densitometry was measured using ImageJ software (NIH Image). To quantitate the immuno-dot blot assay results, we prepared controls (total protein level stained by amido black), and subsequently established a calibration figure for each run of the assay.

[4] = Angiotensin II-induced water consumption test (Supplementary Fig. 4a); assay type: in vivo, mouse; conditions: After (angiotensin II); individual animals
Procedure: For intracerebroventricular (ICV) cannulation, mice were anesthetized by intraperitoneal injection (IP) of Zoletil (titelamine/zolazepam 30 mg/kg) and Rompun (xylazine 10 mg/kg), then placed onto a stereotaxic apparatus. After setting the ventricular coordinates, a permanent 26-gauge stainless steel cannula (Plastic one, Inc.) was implanted in the third ventricle (1.8 mm caudal to bregma, and 5.0 mm ventral to the sagittal sinus according to the Paxinos and Franklin’s atlas) and secured to the skull surface using a dental acrylic (Vertex). Mice were individually housed and allowed to recover for at least 1 week. The angiotensin II-induced water consumption test was performed to confirm the position of the ICV cannulation. […] Mice with no angiotensin II-induced thirst behavior were excluded from the experiments.

CXCR7 [5] = test: Nanoluc-complementation (NanoBiT) β-Arrestin2 recruitment to CXCR7; assay type: cell-based, human; conditions: HEK293T, n = 4 each group
Procedure: The recruitment assay was performed based on Nano-luciferase[49]. The vectors (50 ng; gift of Prof. Jong-Ik Hwang, Korea University) encoding human CXCR7, CXCR4, and β-Arrestin2 tagged with SmBiT and LgBiT under Ubiquitin C promoter[49] were transfected into HEK293T cells in a 96-well clear bottom culture plate using Lipofectamine 2000 according to the manufacturer’s protocol. Cells were washed three times with an assay buffer containing (in mM) 140 NaCl, 2.5 KCl, 10 Glucose, 5 HEPES, 2 CaCl2, and 2 MgSO4, pH 7.4 after 24 h. Cells were then incubated with 5 µM Coelenterazine-h (Promega, S201) in the assay buffer for 30 min in the dark, and luminescence was measured at 35 °C in the Victor Nivo Multimode Plate reader (PerkinElmer). The background luminescence was measured for at least 10 min before the addition of ligands, and signals were monitored for at least 60 min after the application of SHLP2 or recombinant mouse CXCL12 (R&D systems, 460-SD-010/CF). The specificity of SHLP2 β-Arrestin2 recruitment through CXCR7 was also confirmed through the assay with CXCR4. Luminescent signals were collected through a 700 nm-IR filter and data were shown as light counts per each cycle of measurement.

adipocytes = conditions: in vitro; cited from earlier work
Excerpt: In addition to humanin and MOTS-c, a recent study has identified an additional six small humanin-like peptides (SHLP1 to 6) encoded by the 16S rRNA gene of the mtDNA genome. […] However, the mechanism by which SHLP2 affec ...

[6] = cited from earlier work
Excerpt: One of the first MDPs discovered is Humanin, a 24-amino-acid peptide encoded by the mitochondrial 16S ribosomal RNA (rRNA) gene. It was originally identified in 2001 during a screening for neuroprotective factors against Alzheimer’s disease[6],[7]. […] Another MDP called Mito chondrial Open Reading Frame of the 12S rRNA-c (MOTS-c) is encoded by the mitochondrial 12S rRNA gene[9]. MOTS-c is a mitochondria-originated metabolic hormone which ... || In addition to humanin and MOTS-c, a recent study has identified an additional six small humanin-like peptides (SHLP1 to 6) encoded by the 16S rRNA gene of the mtDNA genome. […] However, the mechanism by which SHLP2 affec ...

[7] = tested on: POMC neurons expressing hM4Di; test: Patch clamp of hM4Di-expressing POMC neurons on CNO application; assay type: cell-based, mouse; conditions: for Firing rate / Resting membrane potential (RMP): hM4Di-expressing POMC neurons, CNO
Procedure: Slices were moved to a submerged-type recording chamber with continuous perfusion of carbogenated recording aCSF heated to 31 °C at a flow rate of approximately 2 mL/min. Tested compounds were added through bath perfusion. To block synaptic inputs, the aCSF contained 100 nM tetrodotoxin (TTX citrate; Tocris, 1069), 100 μM picrotoxin (Sigma-Aldrich, P8390), 100 μM D(−)-2-Amino-5-phosphonopentanoic acid (D-AP-V; Tocris, 0106) and 20 μM CNQX (CNQX-disodium; Tocris, 1045). To block ERK1/2 activation or PI3K signaling pathway, 10 µM of PD98059 (Tocris, 1213) or 1 µM of wortmannin (Tocris, 1232) was added to the bath solution for at least 30 min before any measurement. To test the effect of CNO on POMC neurons expressing the DREDD hM4Di receptor, 5 μM of CNO were applied for 1 to 2 min.
POMC or AgRP-expressing neurons in the ARC were identified with a brief exposure to epifluorescence on an upright microscope (Nikon FN1) using a 40X water-immersion objective and differential interference contrast optics. The pipette solution contains (in mM) 127 K-Methanesulfonate, 5 KCl, 10 HEPES, 0.3 EGTA, 4 Mg-ATP, 0.3 Na-GTP, and is of a pH adjusted to 7.3 with KOH and a 288 mOsm/kg osmolality. The patch pipettes have a resistance of 4-6 MΩ when filled with the pipette solution. […] The basal resting membrane potential and firing rate were recorded for around 3 min after breaking in, and bath perfusion of SHLP2 was applied for 3 to 5 min. Neurons were classified as responsive if there was a change in resting membrane potential of at least 2 mV during the period of drug application. The access resistance (Ra) was monitored throughout the experiment, and cells with a Ra of more than 35 MΩ were excluded from the analysis. Data were acquired at 10 kHz, filtered with a lowpass filter at 5 kHz and analyzed offline with Clampfit 10 (Molecular Devices). The calculated liquid junction potential was +9.55 mV and used to correct all data.

Sequence of CXCR7 tagged with ProLink (PathHunter CHO-K1 cell line) (P25106 whole entry): as the sequence (P25106 whole entry) above

## Small humanin-like peptide 2 (SHLP2), biotinylated
[1]
  PathHunter β-Arrestin recruitment to CXCR7 (screen of 168 GPCRs, agonist mode): relative agonistic activity of SHLP2 as percent of the known ligand SDF1α/CXCL12 (% of the known ligand SDF1α/CXCL12): 70
  PathHunter β-Arrestin recruitment to CXCR7, dose response to SHLP2 (10-point curve): EC50: 0.97 µM

## MGVKFFTLSTRFFPSVQRAVPLWTNS [SHLP2, Small humanin-like peptide 2]
CXCR7 [2]
  EC50: 0.97 µM
[3]; IP injection, individual animals (n = 3)
  SHLP2 in CSF, relative dot blot densitometry: 3.163 and 4.493 and 3.525
[3]; systemic (IP) injection
  SHLP2 detection in CSF: highly detected in the CSF

## angiotensin II (DRVYIHPF; Angiotensin-2; UniProt P01019 25-32, looked up) [used in the water consumption test to confirm ICV cannula position]
[4]
  Fig. S4a water intake: 0.37 g and 0.63 g and 0.3 g and 0.21 g

## Small humanin-like peptide 1 [SHLP1]
CXCR7 [5]
  CXCR7 activation (β-Arrestin2 recruitment) by SHLP1 to 6: but not by SHLP1, 3, 4, 5, or 6

## Small humanin-like peptide 3 [SHLP3]
adipocytes
  cellular differentiation and insulin sensitivity in adipocytes: enhance cellular differentiation and insulin sensitivity in adipocytes in vitro
CXCR7 [5]
  CXCR7 activation (β-Arrestin2 recruitment) by SHLP1 to 6: but not by SHLP1, 3, 4, 5, or 6

## humanin: 24-amino-acid peptide encoded by the mitochondrial 16S ribosomal RNA gene (MAPRGFSCLLLLTSEIDLPVKRRA; UniProt Q8IVG9 1-24, looked up)
[6]
  lifespan: promote lifespan

## Small humanin-like peptide 6 [SHLP6]
CXCR7 [5]
  CXCR7 activation (β-Arrestin2 recruitment) by SHLP1 to 6: but not by SHLP1, 3, 4, 5, or 6

## Small humanin-like peptide 4 [SHLP4]
CXCR7 [5]
  CXCR7 activation (β-Arrestin2 recruitment) by SHLP1 to 6: but not by SHLP1, 3, 4, 5, or 6

## Small humanin-like peptide 5 [SHLP5]
CXCR7 [5]
  CXCR7 activation (β-Arrestin2 recruitment) by SHLP1 to 6: but not by SHLP1, 3, 4, 5, or 6

## Mito chondrial Open Reading Frame of the 12S rRNA-c (MRWQEMGYIFYPRKLR; UniProt A0A0C5B5G6 1-16, looked up) [MOTS-c, mitochondrial-derived peptide encoded by the mitochondrial 12S rRNA gene]
[6]
  lifespan: promote lifespan

## C[N+]1([O-])CCN(C2=Nc3cc(Cl)ccc3Nc3ccccc32)CC1 [CNO, Clozapine-N-oxide]
[7]; 5 μM CNO, 1 to 2 min, n = 6 from 2 animals
  effect on POMC neurons expressing hM4Di: induced hyperpolarization of POMC neurons expressing hM4Di
[7]; 5 μM CNO, n = 6 from 2 animals
  resting membrane potential and firing rate of POMC neurons expressing hM4Di: decreases in the resting membrane potentials (h) and firing rates (i)
[7]; replicate 1 of 6
  Firing rate: 0.3384
  Resting membrane potential (RMP): -60.0566
[7]; replicate 2 of 6
  Firing rate: 0
  Resting membrane potential (RMP): -63.8078
[7]; replicate 3 of 6
  Firing rate: 0.1759
  Resting membrane potential (RMP): -77.9333
[7]; replicate 4 of 6
  Firing rate: 0.2189
  Resting membrane potential (RMP): -57.1355
[7]; replicate 5 of 6
  Firing rate: 0.1654
  Resting membrane potential (RMP): -59.3185
[7]; replicate 6 of 6
  Firing rate: 0.2879
  Resting membrane potential (RMP): -55.5068
